Where “and” joins values, the source holds several entries; their conditions need not be identical. Equal entries are not always repeated. Where two headings read alike, the source gives them in different places. One block for each compound: values may come before it.
Experiments:
CDK12–cyclin K and DDB1 = target: T1, CDK12–cyclin K and DDB1 (Homo sapiens, UniProt Q16531+Q9NYV4, K965R); assay: TR-FRET ternary complex formation assay (compound titration); type: binding; details: for TR-FRET signal at compound concentration: replicate titrations
T1 construct: His6–CDK12 (a.a. 713–1,052); full-length or beta-propeller B domain deletion (ΔBPB: a.a. 396–705 deleted) constructs of His6–DDB1ΔBPB, StrepII–Avi–DDB1, or His6–Spy–DDB1; made in house; host or cells: Trichoplusia ni High Five insect cells (baculovirus)
T1 sequence (Q9NYV4 713-1052 K965R): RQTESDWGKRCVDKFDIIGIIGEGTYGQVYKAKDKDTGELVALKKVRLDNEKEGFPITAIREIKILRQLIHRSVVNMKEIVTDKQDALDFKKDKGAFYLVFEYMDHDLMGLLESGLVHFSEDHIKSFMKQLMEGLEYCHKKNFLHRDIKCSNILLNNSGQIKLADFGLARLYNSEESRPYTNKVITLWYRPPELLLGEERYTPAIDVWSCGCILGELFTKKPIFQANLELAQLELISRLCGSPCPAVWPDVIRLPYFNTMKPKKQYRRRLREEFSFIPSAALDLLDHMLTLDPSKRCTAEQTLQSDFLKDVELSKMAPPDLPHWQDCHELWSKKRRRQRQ
T1 sequence (O75909 1-267 partner): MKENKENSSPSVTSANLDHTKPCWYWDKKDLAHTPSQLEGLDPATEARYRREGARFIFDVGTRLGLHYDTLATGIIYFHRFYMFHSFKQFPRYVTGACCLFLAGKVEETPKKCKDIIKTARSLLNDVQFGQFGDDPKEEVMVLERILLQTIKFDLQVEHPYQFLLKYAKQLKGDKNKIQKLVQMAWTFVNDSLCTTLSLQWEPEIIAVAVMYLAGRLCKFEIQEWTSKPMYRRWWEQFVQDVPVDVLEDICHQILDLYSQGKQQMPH
T1 sequence (Q16531 whole entry): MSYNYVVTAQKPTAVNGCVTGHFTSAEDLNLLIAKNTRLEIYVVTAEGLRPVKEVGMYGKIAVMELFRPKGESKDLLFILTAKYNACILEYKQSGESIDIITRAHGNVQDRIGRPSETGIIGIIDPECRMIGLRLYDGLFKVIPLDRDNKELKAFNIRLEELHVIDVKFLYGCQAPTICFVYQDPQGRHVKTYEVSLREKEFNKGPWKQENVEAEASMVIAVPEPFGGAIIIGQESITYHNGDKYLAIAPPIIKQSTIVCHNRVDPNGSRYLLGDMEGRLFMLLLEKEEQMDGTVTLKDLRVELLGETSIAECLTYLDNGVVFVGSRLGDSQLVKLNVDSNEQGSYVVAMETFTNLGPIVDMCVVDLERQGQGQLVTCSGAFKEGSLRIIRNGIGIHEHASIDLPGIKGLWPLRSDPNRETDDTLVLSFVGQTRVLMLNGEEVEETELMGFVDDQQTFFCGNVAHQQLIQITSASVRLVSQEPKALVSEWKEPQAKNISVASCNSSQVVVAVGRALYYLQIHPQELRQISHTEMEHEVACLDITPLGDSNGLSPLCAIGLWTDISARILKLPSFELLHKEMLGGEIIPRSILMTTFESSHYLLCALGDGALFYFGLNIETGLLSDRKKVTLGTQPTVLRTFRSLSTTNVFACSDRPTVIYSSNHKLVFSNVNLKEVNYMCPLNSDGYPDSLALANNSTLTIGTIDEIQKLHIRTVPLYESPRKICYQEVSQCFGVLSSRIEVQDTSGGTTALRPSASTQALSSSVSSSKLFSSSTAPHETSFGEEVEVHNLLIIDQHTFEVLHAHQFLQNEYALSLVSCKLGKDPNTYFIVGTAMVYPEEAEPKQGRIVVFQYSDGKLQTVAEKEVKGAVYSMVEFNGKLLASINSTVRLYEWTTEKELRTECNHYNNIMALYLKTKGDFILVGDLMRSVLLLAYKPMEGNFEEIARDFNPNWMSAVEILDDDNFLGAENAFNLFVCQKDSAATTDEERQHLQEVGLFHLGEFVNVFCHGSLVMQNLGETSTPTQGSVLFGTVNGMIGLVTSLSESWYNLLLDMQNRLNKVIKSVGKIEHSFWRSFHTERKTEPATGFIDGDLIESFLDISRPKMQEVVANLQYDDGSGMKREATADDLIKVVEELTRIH
In short: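 TR-FRET ratio 520/490 nm; 70 μs delay before read to suppress background.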

[1] = test system: cyclin K–eGFP degradation reporter; assay: Cyclin K reporter stability analysis (dual-color cyclin K–eGFP reporter); type: cell-based, human
In short: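 Cells (HEK293T–Cas9, reporter-expressing) at 1 × 10^6 ml^−1; 5 h compound or DMSO; flow cytometry; gMFI eGFP ÷ mCherry on round mCherry-positive events; normalized to 3 DMSO controls.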

HEK293T cells = assay: Drug sensitivity assay (CellTiter-Glo viability) with or without MLN4924 pretreatment; type: cell-based, human; details: Supplementary Table 2; for EC50: Homo sapiens, HEK-293T, HEK293T viability, 72 h, compound alone, read-out: Cellular assays EC50; for Toxicity rescue: MLN4924-mediated cytotoxicity rescue, 10 µM used where n.d.
In short: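 Luminescent ATP read-out (CellTiter-Glo) after 3 days of drug exposure, normalised to DMSO controls. Cells were HEK293T–Cas9, pretreated with 100 nM MLN4924 or DMSO for 2 h before drug dispensing.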

[2] = in vitro complex formation, 50 nM CDK12–cyclin K, 100 nM DDB1, text and figures, read-out: TR-FRET EC50
[3] = sheet MOESM7, read-out: log TR-FRET EC50 (converted)
[4] = Supplementary Table 2, read-out: TR-FRET EC50 TR-FRET
[5] = compound concentration 79.2001 nM
[6] = compound concentration 158.4 nM
[7] = compound concentration 309.6 nM
[8] = compound concentration 626.401 nM
[9] = compound concentration 1252.8 nM
[10] = compound concentration 9936.01 nM
[11] = compound concentration 20016 nM
[12] = Supplementary Table 2, HEK293T cycK-eGFP reporter, 5 h, read-out: Cellular assays DC50

TR-FRET signal at compound concentration (CDK12–cyclin K and DDB1; compound concentration 0.468 nM): 0.2972 and 0.3391 | TR-FRET signal at compound concentration (CDK12–cyclin K and DDB1; compound concentration 2.16 nM): 0.4654 and 0.4243 | TR-FRET signal at compound concentration (CDK12–cyclin K and DDB1; compound concentration 3.6 nM): 0.6432 and 0.6311 | TR-FRET signal at compound concentration (CDK12–cyclin K and DDB1; compound concentration 7.92001 nM): 1.023 and 1.017 | TR-FRET signal at compound concentration (CDK12–cyclin K and DDB1; compound concentration 15.84 nM): 1.68 and 1.67 | TR-FRET signal at compound concentration (CDK12–cyclin K and DDB1; compound concentration 30.96 nM): 2.537 and 2.526 | TR-FRET signal at compound concentration (CDK12–cyclin K and DDB1; compound concentration 62.6401 nM): 3.223 and 3.119 | TR-FRET signal at compound concentration (CDK12–cyclin K and DDB1; compound concentration 125.28 nM): 3.664 and 3.458 | TR-FRET signal at compound concentration (CDK12–cyclin K and DDB1; compound concentration 244.8 nM): 3.773 and 3.684 | TR-FRET signal at compound concentration (CDK12–cyclin K and DDB1; compound concentration 993.601 nM): 3.764 and 3.722 | TR-FRET signal at compound concentration (CDK12–cyclin K and DDB1; compound concentration 2001.6 nM): 3.801 and 3.784 | EC50 (CDK12–cyclin K and DDB1; [2]): 21 ± 1 nM | EC50 (CDK12–cyclin K and DDB1; [3]): 21.4 nM | EC50 (CDK12–cyclin K and DDB1; source data sheet correlations, read-out: TR-FRET EC50): 21.4 nM | DC50 ([1]; source data sheet correlations, read-out: DC50): 23 nM
SMILES: CC[C@H](CO)Nc1nc(NCc2ccc(-c3ccccn3)c(=O)[nH]2)c2ncn(C(C)C)c2n1 [WX3]
EC50 (HEK293T cells): 179 nM | Toxicity rescue (HEK293T cells): 954%

EC50 (CDK12–cyclin K and DDB1; [4]): 5740 nM | TR-FRET signal, individual replicate (CDK12–cyclin K and DDB1; compound concentration 4.68 nM): 0.1996 and 0.2467 | TR-FRET signal, individual replicate (CDK12–cyclin K and DDB1; compound concentration 21.6 nM): 0.2088 and 0.2442 | TR-FRET signal, individual replicate (CDK12–cyclin K and DDB1; compound concentration 36 nM): 0.2151 and 0.2401 | TR-FRET signal, individual replicate (CDK12–cyclin K and DDB1; [5]): 0.2234 and 0.2572 | TR-FRET signal, individual replicate (CDK12–cyclin K and DDB1; [6]): 0.237 and 0.2667 | TR-FRET signal, individual replicate (CDK12–cyclin K and DDB1; [7]): 0.2597 and 0.2826 | TR-FRET signal, individual replicate (CDK12–cyclin K and DDB1; [8]): 0.3077 and 0.3432 | TR-FRET signal, individual replicate (CDK12–cyclin K and DDB1; [9]): 0.3992 and 0.4242 | TR-FRET signal, individual replicate (CDK12–cyclin K and DDB1; compound concentration 2448 nM): 0.5328 and 0.5897 | TR-FRET signal, individual replicate (CDK12–cyclin K and DDB1; [10]): 1.042 and 1.049 | TR-FRET signal, individual replicate (CDK12–cyclin K and DDB1; [11]): 1.225 and 1.271 | EC50 (CDK12–cyclin K and DDB1; [3]): 5740 nM | DC50 [1, 12]: > 10000 nM
SMILES: CC[C@H](CO)Nc1nc(NCCC2CCCCCCC2)c2ncn(C(C)C)c2n1 [DS38]
EC50 (HEK293T cells): > 10000 nM | Toxicity rescue (HEK293T cells): 0%

TR-FRET signal at compound concentration 4.68 nM (CDK12–cyclin K and DDB1; compound concentration 4.68 nM, raw replicate titration data): 0.1362 and 0.1646 | TR-FRET signal at compound concentration 21.6 nM (CDK12–cyclin K and DDB1; compound concentration 21.6 nM, raw replicate titration data): 0.1797 and 0.2051 | TR-FRET signal at compound concentration 36 nM (CDK12–cyclin K and DDB1; compound concentration 36 nM, raw replicate titration data): 0.2299 and 0.264 | TR-FRET signal at compound concentration 79.2001 nM (CDK12–cyclin K and DDB1; compound concentration 79.2001 nM, raw replicate titration data): 0.275 and 0.3223 | TR-FRET signal at compound concentration 158.4 nM (CDK12–cyclin K and DDB1; compound concentration 158.4 nM, raw replicate titration data): 0.3283 and 0.3614 | TR-FRET signal at compound concentration 309.6 nM (CDK12–cyclin K and DDB1; compound concentration 309.6 nM, raw replicate titration data): 0.3492 and 0.3941 | TR-FRET signal at compound concentration 626.401 nM (CDK12–cyclin K and DDB1; compound concentration 626.401 nM, raw replicate titration data): 0.3927 and 0.4325 | TR-FRET signal at compound concentration 1252.8 nM (CDK12–cyclin K and DDB1; compound concentration 1252.8 nM, raw replicate titration data): 0.4009 and 0.4489 | TR-FRET signal at compound concentration 2448 nM (CDK12–cyclin K and DDB1; compound concentration 2448 nM, raw replicate titration data): 0.4033 and 0.4482 | TR-FRET signal at compound concentration 9936.01 nM (CDK12–cyclin K and DDB1; compound concentration 9936.01 nM, raw replicate titration data): 0.3857 and 0.4199 | TR-FRET signal at compound concentration 20016 nM (CDK12–cyclin K and DDB1; compound concentration 20016 nM, raw replicate titration data): 0.3623 and 0.3979 | EC50 (CDK12–cyclin K and DDB1; [2]): 62 ± 13 nM | DC50 [1, 12]: > 10000 nM
SMILES: COC[C@@H](C)N[C@H]1CC[C@H](Nc2cc(-c3cccc(NCC4(C#N)CCOCC4)n3)c(Cl)cn2)CC1 [NVP-2, reference compound]
EC50 (HEK293T cells): 23 nM | Toxicity rescue (HEK293T cells): -22%

EC50 (CDK12–cyclin K and DDB1; [4]): 349 nM | fold lower affinity than DS11 (CDK12–cyclin K and DDB1; TR-FRET complex formation): 5-10 fold | TR-FRET signal (CDK12–cyclin K and DDB1; compound concentration 4.68 nM): 0.1538 and 0.1597 | TR-FRET signal at compound concentration (CDK12–cyclin K and DDB1; compound concentration 4.68 nM): 0.1538 and 0.1597 | TR-FRET signal (CDK12–cyclin K and DDB1; compound concentration 21.6 nM): 0.2215 and 0.2268 | TR-FRET signal at compound concentration (CDK12–cyclin K and DDB1; compound concentration 21.6 nM): 0.2215 and 0.2268 | TR-FRET signal (CDK12–cyclin K and DDB1; compound concentration 36 nM): 0.3624 and 0.3872 | TR-FRET signal at compound concentration (CDK12–cyclin K and DDB1; compound concentration 36 nM): 0.3624 and 0.3872 | TR-FRET signal (CDK12–cyclin K and DDB1; [5]): 0.5721 and 0.6282 | TR-FRET signal at compound concentration (CDK12–cyclin K and DDB1; [5]): 0.5721 and 0.6282 | TR-FRET signal (CDK12–cyclin K and DDB1; [6]): 0.8913 and 0.9385 | TR-FRET signal at compound concentration (CDK12–cyclin K and DDB1; [6]): 0.8913 and 0.9385 | TR-FRET signal (CDK12–cyclin K and DDB1; [7]): 1.311 and 1.295 | TR-FRET signal at compound concentration (CDK12–cyclin K and DDB1; [7]): 1.311 and 1.295 | TR-FRET signal (CDK12–cyclin K and DDB1; [8]): 1.632 and 1.6565 | TR-FRET signal at compound concentration (CDK12–cyclin K and DDB1; [8]): 1.632 and 1.6565 | TR-FRET signal (CDK12–cyclin K and DDB1; [9]): 1.8858 and 2.021 | TR-FRET signal at compound concentration (CDK12–cyclin K and DDB1; [9]): 1.8858 and 2.021 | TR-FRET signal (CDK12–cyclin K and DDB1; compound concentration 2448 nM): 2.206 and 2.209 | TR-FRET signal at compound concentration (CDK12–cyclin K and DDB1; compound concentration 2448 nM): 2.206 and 2.209 | TR-FRET signal (CDK12–cyclin K and DDB1; [10]): 2.4811 and 2.469 | TR-FRET signal at compound concentration (CDK12–cyclin K and DDB1; [10]): 2.4811 and 2.469 | TR-FRET signal (CDK12–cyclin K and DDB1; [11]): 2.543 and 2.456 | TR-FRET signal at compound concentration (CDK12–cyclin K and DDB1; [11]): 2.543 and 2.456 | EC50 (CDK12–cyclin K and DDB1; [2]): 349 ± 15 nM | EC50 (CDK12–cyclin K and DDB1; [3]): 349 nM | DC50 [1, 12]: > 10000 nM
SMILES: CC[C@H](CO)Nc1nc(NCCCCc2ccccc2)c2ncn(C(C)C)c2n1 [DS09]
EC50 (HEK293T cells): > 10000 nM | Toxicity rescue (HEK293T cells): 0%
